Reference: PMC11651915, “Small molecule protein assembly modulators with pan-cancer therapeutic efficacy” (Open Biology, 2024)

What was measured:
A549 and MRC-5 cells = assay: Toxicity to A549 cancer line versus non-cancer MRC-5 cells; type: cell-based
HCT-15 = assay: cells; details: Homo sapiens, HCT-15, 48 h
in vivo = details: female, Balb/c, mouse, ip
MHH-PREB-1 = assay: Eurofins OncoPanel (CellTiter-Glo); details: Homo sapiens, MHH-PREB-1, 72 h
SNB-19 = assay: cells; details: Homo sapiens, SNB-19, 48 h
Hennes 20 cells [1] = assay: Cell growth recovery assay; type: cell-based, Chinese hamster; details: PAV-617 0.3 µM 24 h, PAV-951 0.4 µM 6 h, followed to day 14
Description: To confirm that the inhibition observed in low-density Hennes 20 cells resulted from temporary arrest of proliferation and not cell death, compound was removed after a period of treatment and cell growth was measured over the subsequent two weeks for recovery potential. Once compound was removed, following a period of recovery, cell proliferation was restored over time for both chemotypes (see figure 1f,g). By day 11, cell density in compound-treated cells had caught up to that in the DMSO-treated cells (see figure 1f,g).
A 96-well plate was seeded with either Hennes 20 or LNCaP C-33 cells at 500 cells per well in 90 µl of minimum essential media and incubated at 37°C for 24 h. 0.5% DMSO was diluted in media and added to six control wells for each plate. PAV-617 was diluted in media and added to three wells at a concentration of 0.3 µM. PAV-951 was diluted in media and added to concentration of 0.4 µM. After 24 h of PAV-617 treatment or 6 h of PAV-951 treatment, the medium containing compound was removed and replaced with fresh media. After 72 h (day 5), plates were assayed with AlamarBlue and fluorescence was read at 530/590. The medium containing AlamarBlue was removed and replaced with fresh media. After another 72 h (day 8) plates were assayed with AlamarBlue and fluorescence again, then medium containing AlamarBlue was removed and replaced with fresh media. […]

KM12 = assay: cells; details: Homo sapiens, KM12, 48 h
[2] = test system: A549 human lung cancer xenograft; details: mouse, in vivo
SW-620 = assay: cells; type: cell-based; details: Homo sapiens, NCI-60, 48 h
HT29 = assay: cells; type: cell-based; details: Homo sapiens, HT-29, NCI-60, 48 h
LOX IMVI = assay: cells; details: Homo sapiens, 48 h
M14 = assay: cells; type: cell-based; details: Homo sapiens, NCI-60, 48 h
RPMI-8226 = assay: cells; type: cell-based; details: Homo sapiens, NCI-60, 48 h
Hennes 20 cells [3] = assay: High density/low density 'arrest of proliferation' assay; type: cell-based, Chinese hamster; details: Hennes 20, 72 h, AlamarBlue
Hs 294T = assay: Eurofins OncoPanel (CellTiter-Glo); type: cell-based; details: Homo sapiens, 72 h, 3 days
A498 = assay: cells; details: Homo sapiens, A498, 48 h
SK-OV-3 = assay: cells; details: Homo sapiens, SK-OV-3, 48 h
HCC-2998 = assay: cells; details: Homo sapiens, HCC 2998, 48 h
U2OS = assay: Eurofins OncoPanel (CellTiter-Glo); type: cell-based; details: Homo sapiens, 72 h, 3 days
PC-3 = assay: cells; type: cell-based; details: Homo sapiens, NCI-60, 48 h
MDA MB 436 = assay: Eurofins OncoPanel (CellTiter-Glo); type: cell-based; details: Homo sapiens, 72 h, 3 days
HOP-92 = assay: cells; details: Homo sapiens, HOP-92, 48 h
A172 = assay: Eurofins OncoPanel (CellTiter-Glo); type: cell-based; details: Homo sapiens, A 172, 72 h, 3 days
OVCAR-4 = assay: cells; details: Homo sapiens, OVCAR-4, 48 h
A549/ATCC = assay: cells; type: cell-based; details: Homo sapiens, NCI-60, 48 h
HS 578T = assay: cells; details: Homo sapiens, 48 h
T-47D = assay: cells; type: cell-based; details: Homo sapiens, T47D, NCI-60, 48 h
H9 = assay: Eurofins OncoPanel (CellTiter-Glo); type: cell-based; details: Homo sapiens, 72 h, 3 days
OVCAR-5 = assay: cells; details: Homo sapiens, OVCAR-5, 48 h
OVCAR-3 = assay: cells; details: Homo sapiens, OVCAR-3, 48 h
MOLT-4 = assay: cells; type: cell-based; details: Homo sapiens, NCI-60, 48 h
[4] = test system: BB5 patient biopsy derived cell line (breast adenocarcinoma); assay: BB1 and BB5 adenoma versus carcinoma screen (confocal imaging); type: cell-based; details: Homo sapiens, 60 h, percent ChromaLive negative
UACC-257 = assay: cells; details: Homo sapiens, UACC-257, 48 h
SK-MEL-28 = assay: cells; details: Homo sapiens, SK-MEL-28, 48 h
NL4-3 Rluc HIV = assay: microbe, parasite or virus in culture; type: cell-based; details: Human immunodeficiency virus 1, NL43, MT2, 96 h, read-out: EC50 against HIV

In the case of `CC(C)CCNc1ncnc2cc(N3CCN(c4ccc5c(NCCC(C)C)ncnc5c4)CC3)ccc12` [PAV-951], the “toxicity to A549 cancer line compared with non-cancer MRC-5 cells” value (A549 and MRC-5 cells) is reported as “selectively toxic to the A549 cancer line”, the GI50 (HCT-15) is reported as 173 nM and the CC50 (HCT-15; read-out: LC50) is reported as 815 nM. The MTD (in vivo) was 2.5 mg/kg, the IC50 (MHH-PREB-1) was 400 nM and the GI50 (SNB-19) was 1170 nM. The CC50 (SNB-19; read-out: LC50) was 5180 nM, the “recovery of cell growth after removal of compound” value (Hennes 20 cells [1]) was “recovered over time” and the GI50 (KM12) was 227 nM. For the same compound, the CC50 (KM12; read-out: LC50) was 3850 nM, the “adverse effects at the doses of the xenograft studies” value [2] was “without any serious adverse effects” and the GI50 (SW-620) was 194 nM. The GI50 (HT29) was 345 nM, the GI50 (LOX IMVI) was 183 nM and the CC50 (LOX IMVI; read-out: LC50) was 684 nM. The GI50 (M14) was 533 nM, the GI50 (RPMI-8226) was 213 nM and the “inhibitory effect at low (500 cells per well) versus high (15 000 cells per well) density” value (Hennes 20 cells [3]) was “difference between their inhibitory effects on low and high density-plated Hennes 20 cells”. It also gave an IC50 (Hs 294T) of 1100 nM, a GI50 (A498) of 1860 nM and a CC50 (A498; read-out: LC50) of 5920 nM. For the same compound, the GI50 (SK-OV-3) was 1550 nM, the CC50 (SK-OV-3; read-out: LC50) was 6340 nM and the GI50 (HCC-2998) was 967 nM. The CC50 (HCC-2998; read-out: LC50) was 5130 nM, the IC50 (U2OS) was 368 nM and the GI50 (PC-3) was 399 nM. It also gave an IC50 (MDA MB 436) of 1460 nM, a GI50 (HOP-92) of 1230 nM and a CC50 (HOP-92; read-out: LC50) of 6220 nM. It also gave an IC50 (A172) of 1020 nM, a GI50 (OVCAR-4) of 452 nM and a CC50 (OVCAR-4; read-out: LC50) of 4560 nM. For the same compound, the GI50 (A549/ATCC) was 302 nM, the GI50 (HS 578T) was 352 nM and the CC50 (HS 578T; read-out: LC50) was over 100000 nM. It also gave a GI50 (T-47D) of 952 nM, an IC50 (H9) of 165 nM and a GI50 (OVCAR-5) of 1080 nM. For the same compound, the CC50 (OVCAR-5; read-out: LC50) was 4830 nM, the GI50 (OVCAR-3) was 1050 nM and the CC50 (OVCAR-3; read-out: LC50) was 4790 nM. For the same compound, the GI50 (MOLT-4) was 223 nM, the IC50 [4] was 500 nM and the GI50 (UACC-257) was 1710 nM. The CC50 (UACC-257; read-out: LC50) was 5980 nM, the GI50 (SK-MEL-28) was 1330 nM and the CC50 (SK-MEL-28; read-out: LC50) was 5240 nM. It also gave an EC50 (NL4-3 Rluc HIV) of 660 nM.
